Reference: patent publication US20150202172A1, “NOVEL METHOD OF USE” (Glaxo Group Limited, priority 2014, published 2015)
Several values for one entry are separate records, joined by “and”; a condition that tells them apart may be missing. Equal entries are not always repeated.

Experiments:
[1] = test system: patients with Severe Refractory Chronic Hand Eczema (CHE); test: Clinical trial simulation (longitudinal dose response model): time from initial dose to onset of effect; assay type: in vivo, human; conditions: age 75 yr; 30 mg
Experimental: (§1) In reviewing the data to make these determinations, all available PGA scores observed (not including scores derived from missing data such as last observation carried forward (LOCF) including those at baseline, every 4 weeks during treatment, and every 4 to 8 weeks after cessation of treatment for up to 72 weeks post treatment from the various clinical trials were used to develop a longitudinal dose response model.
(§2) In clinical studies, efficacy was measured using PGA score and modified total lesion signs and symptoms (mTLSS) at various times during and post treatment. PGA scores over time were chosen for this analysis because PGA scores were the primary endpoint in the Phase III studies and were collected at more time points than the mTLSS. The PGA was graded according to 5 point scale (clear, almost clear, mild disease, moderate disease, severe disease). The mTLSS severity score was graded 0 to 3 for 7 parameters.
A >2 weeks time to onset is considered clinically relevant.

[2] = test system: patients with Severe Refractory Chronic Hand Eczema (CHE); test: Clinical trial simulation (longitudinal dose response model): no relapse (PGA ≠ 5) by 6 months post treatment; assay type: in vivo, human; conditions: for Proportion of Responders Who Did Not Relapse (PGA ≠ 5) 6 months Post Treatment / Proportion of Subjects with PGA = 1 at end of treatment who did not relapse (PGA ≠ 5) 6 Months Post Treatment / Proportion of Subjects with PGA = 2 at the end of treatment who did not relapse (PGA ≠ 5) 6 Months Post Treatment / Proportion of Subjects with PGA = 3 at the end of treatment who did not relapse (PGA ≠ 5) 6 Months Post Treatment / Proportion of Subjects with PGA = 1 Who Did Not Relapse (PGA ≠ 5) 6 Months Post Treatment / Proportion of Subjects with PGA = 2 Who Did Not Relapse (PGA ≠ 5) 6 Months Post Treatment / Proportion of Subjects with PGA = 3 Who Did Not Relapse (PGA ≠ 5) 6 Months Post Treatment: 30 mg
Experimental: as §1, §2
For the Physician Global Assessment (PGA), a general description of CHE severity, which is a well recognized scale is shown below in Table 7 for clarification purposes.

## CC1=C(/C=C/C(C)=C\C=C\C(C)=C\C(=O)O)C(C)(C)CCC1 [Alitretinoin, 9-cis isomer of retinoic acid (RA)]
[1]
  Time to Onset of Effect (a Drop of 2 or More Points in PGA in 30% of Subjects): 39 (35, 42) Days
[2]; PGA score=1 or 2
  subjects who responded (PGA score=1 or 2) who would not return to severe disease within 6 months post treatment: > 83%
[2]; PGA=1 or PGA=2 at end of treatment (individually)
  difference between a 75 year old and 30 year old in the proportion of patients who did not relapse (PGA score≠5) 6 months after treatment: 10%
[2]; age 30 yr
  Proportion of Responders Who Did Not Relapse (PGA ≠ 5) 6 months Post Treatment: 79% and 78.7 (67, 90) %
  Proportion of Subjects with PGA = 1 at end of treatment who did not relapse (PGA ≠ 5) 6 Months Post Treatment: 77.7 (56, 92) %
  Proportion of Subjects with PGA = 2 at the end of treatment who did not relapse (PGA ≠ 5) 6 Months Post Treatment: 77.6 (62, 91) %
  Proportion of Subjects with PGA = 3 at the end of treatment who did not relapse (PGA ≠ 5) 6 Months Post Treatment: 76.8 (63, 89) %
[2]; age 50 yr
  Proportion of Responders Who Did Not Relapse (PGA ≠ 5) 6 months Post Treatment: 83.2 (73, 92) %
  Proportion of Subjects with PGA = 1 at end of treatment who did not relapse (PGA ≠ 5) 6 Months Post Treatment: 82.4 (65, 94) %
  Proportion of Subjects with PGA = 2 at the end of treatment who did not relapse (PGA ≠ 5) 6 Months Post Treatment: 82.6 (70, 93) %
  Proportion of Subjects with PGA = 3 at the end of treatment who did not relapse (PGA ≠ 5) 6 Months Post Treatment: 81.1 (68, 93) %
[2]; age 65 yr
  Proportion of Responders Who Did Not Relapse (PGA ≠ 5) 6 months Post Treatment: 87% and 86.6 (78, 94) %
  Proportion of Subjects with PGA = 1 at end of treatment who did not relapse (PGA ≠ 5) 6 Months Post Treatment: 86.0 (73, 95) %
  Proportion of Subjects with PGA = 2 at the end of treatment who did not relapse (PGA ≠ 5) 6 Months Post Treatment: 86.0 (74, 96) %
  Proportion of Subjects with PGA = 3 at the end of treatment who did not relapse (PGA ≠ 5) 6 Months Post Treatment: 84.3 (72, 95) %
[2]; age 75 yr
  Proportion of Responders Who Did Not Relapse (PGA ≠ 5) 6 months Post Treatment: 89% and 88.7 (81, 95) %
  Proportion of Subjects with PGA = 1 at end of treatment who did not relapse (PGA ≠ 5) 6 Months Post Treatment: 88.1 (76, 96) %
  Proportion of Subjects with PGA = 2 at the end of treatment who did not relapse (PGA ≠ 5) 6 Months Post Treatment: 88.0 (78, 96) %
  Proportion of Subjects with PGA = 3 at the end of treatment who did not relapse (PGA ≠ 5) 6 Months Post Treatment: 86.5 (74, 96) %
[2]; duration of treatment 4 weeks
  Proportion of Responders Who Did Not Relapse (PGA ≠ 5) 6 months Post Treatment: 79.2 (68, 89) %
  Proportion of Subjects with PGA = 1 Who Did Not Relapse (PGA ≠ 5) 6 Months Post Treatment: 79.8 (61, 93) %
  Proportion of Subjects with PGA = 2 Who Did Not Relapse (PGA ≠ 5) 6 Months Post Treatment: 77.9 (64, 91) %
  Proportion of Subjects with PGA = 3 Who Did Not Relapse (PGA ≠ 5) 6 Months Post Treatment: 76.4 (62, 88) %
[2]; duration of treatment 8 weeks
  Proportion of Responders Who Did Not Relapse (PGA ≠ 5) 6 months Post Treatment: 80.7 (70, 90) %
  Proportion of Subjects with PGA = 1 Who Did Not Relapse (PGA ≠ 5) 6 Months Post Treatment: 81.0 (63, 94) %
  Proportion of Subjects with PGA = 2 Who Did Not Relapse (PGA ≠ 5) 6 Months Post Treatment: 79.5 (67, 92) %
  Proportion of Subjects with PGA = 3 Who Did Not Relapse (PGA ≠ 5) 6 Months Post Treatment: 77.8 (65, 89) %
[2]; duration of treatment 12 weeks
  Proportion of Responders Who Did Not Relapse (PGA ≠ 5) 6 months Post Treatment: 82.3 (68, 95) %
  Proportion of Subjects with PGA = 1 Who Did Not Relapse (PGA ≠ 5) 6 Months Post Treatment: 81.9 (64, 94) %
  Proportion of Subjects with PGA = 2 Who Did Not Relapse (PGA ≠ 5) 6 Months Post Treatment: 80.8 (68, 92) %
  Proportion of Subjects with PGA = 3 Who Did Not Relapse (PGA ≠ 5) 6 Months Post Treatment: 79.1 (67, 90) %
[2]; duration of treatment 16 weeks
  Proportion of Responders Who Did Not Relapse (PGA ≠ 5) 6 months Post Treatment: 83.3 (72, 94) %
  Proportion of Subjects with PGA = 1 Who Did Not Relapse (PGA ≠ 5) 6 Months Post Treatment: 82.5 (66, 94) %
  Proportion of Subjects with PGA = 2 Who Did Not Relapse (PGA ≠ 5) 6 Months Post Treatment: 81.7 (69, 92) %
  Proportion of Subjects with PGA = 3 Who Did Not Relapse (PGA ≠ 5) 6 Months Post Treatment: 80.1 (67, 91) %
[2]; duration of treatment 20 weeks
  Proportion of Responders Who Did Not Relapse (PGA ≠ 5) 6 months Post Treatment: 83.9 (72, 94) %
  Proportion of Subjects with PGA = 1 Who Did Not Relapse (PGA ≠ 5) 6 Months Post Treatment: 83.1 (67, 94) %
  Proportion of Subjects with PGA = 2 Who Did Not Relapse (PGA ≠ 5) 6 Months Post Treatment: 82.6 (69, 94) %
  Proportion of Subjects with PGA = 3 Who Did Not Relapse (PGA ≠ 5) 6 Months Post Treatment: 80.9 (68, 92) %
[2]; duration of treatment 24 weeks
  Proportion of Responders Who Did Not Relapse (PGA ≠ 5) 6 months Post Treatment: 84.4 (75, 93) %
  Proportion of Subjects with PGA = 1 Who Did Not Relapse (PGA ≠ 5) 6 Months Post Treatment: 83.7 (67, 94) %
  Proportion of Subjects with PGA = 2 Who Did Not Relapse (PGA ≠ 5) 6 Months Post Treatment: 83.3 (70, 95) %
  Proportion of Subjects with PGA = 3 Who Did Not Relapse (PGA ≠ 5) 6 Months Post Treatment: 81.6 (68, 92) %
